The results in this text go back to article PMC3956377, “Rapid kill of malaria parasites by artemisinin and semi-synthetic endoperoxides involves ROS-dependent depolarization of the membrane potential” (Journal of Antimicrobial Chemotherapy, 2013).

What all share (format): biochemical
The target in one experiment is T1, PfNDH2 (Plasmodium falciparum, UniProt Q8I302).
T1 construct: gene PF3D7_0915000; recombinant, heterologously expressed; Escherichia coli crude membrane preparation
T1 sequence (Q8I302 34-533): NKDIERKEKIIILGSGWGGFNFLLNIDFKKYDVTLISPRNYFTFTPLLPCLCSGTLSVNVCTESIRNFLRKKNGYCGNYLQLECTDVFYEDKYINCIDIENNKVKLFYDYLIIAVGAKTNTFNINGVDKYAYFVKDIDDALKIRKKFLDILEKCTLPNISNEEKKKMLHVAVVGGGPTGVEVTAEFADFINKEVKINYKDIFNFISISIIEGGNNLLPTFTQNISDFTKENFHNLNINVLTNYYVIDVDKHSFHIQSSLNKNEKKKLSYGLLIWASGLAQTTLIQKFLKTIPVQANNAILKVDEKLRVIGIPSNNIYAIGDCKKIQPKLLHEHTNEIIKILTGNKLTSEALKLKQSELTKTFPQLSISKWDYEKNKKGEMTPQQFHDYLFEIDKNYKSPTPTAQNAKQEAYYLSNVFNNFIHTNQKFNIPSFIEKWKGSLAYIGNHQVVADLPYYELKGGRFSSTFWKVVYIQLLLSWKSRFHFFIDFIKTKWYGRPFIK
Briefly: spectrophotometric NADH:quinone oxidoreductase assay ([…] and […] nm). The conditions noted are these: read-out: Percentage inhibition / PfNDH2.

The target in experiment [1] is T2, complex IV (cytochrome c oxidase) (Plasmodium falciparum, UniProt A0A5K1K9G8).
T2 construct: gene PF3D7_MIT02100; native complex in cell-free extract of saponin-freed parasites; cytochrome c oxidase activity; with Cytochrome c oxidase subunit 3
T2 sequence (A0A5K1K9G8 1-508): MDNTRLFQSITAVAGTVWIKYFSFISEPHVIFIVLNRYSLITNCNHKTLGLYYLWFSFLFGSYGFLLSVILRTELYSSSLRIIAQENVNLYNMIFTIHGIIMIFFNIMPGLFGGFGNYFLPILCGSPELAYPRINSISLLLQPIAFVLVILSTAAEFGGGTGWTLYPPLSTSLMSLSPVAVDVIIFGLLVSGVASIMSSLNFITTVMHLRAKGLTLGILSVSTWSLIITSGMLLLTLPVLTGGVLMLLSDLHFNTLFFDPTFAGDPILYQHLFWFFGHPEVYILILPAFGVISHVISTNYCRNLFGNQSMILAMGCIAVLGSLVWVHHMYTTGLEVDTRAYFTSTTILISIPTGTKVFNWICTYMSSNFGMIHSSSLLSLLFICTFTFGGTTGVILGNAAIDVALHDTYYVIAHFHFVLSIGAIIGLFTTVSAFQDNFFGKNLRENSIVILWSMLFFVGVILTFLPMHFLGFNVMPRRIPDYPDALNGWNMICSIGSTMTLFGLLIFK
T2 sequence (Q7HP05 1-279 partner): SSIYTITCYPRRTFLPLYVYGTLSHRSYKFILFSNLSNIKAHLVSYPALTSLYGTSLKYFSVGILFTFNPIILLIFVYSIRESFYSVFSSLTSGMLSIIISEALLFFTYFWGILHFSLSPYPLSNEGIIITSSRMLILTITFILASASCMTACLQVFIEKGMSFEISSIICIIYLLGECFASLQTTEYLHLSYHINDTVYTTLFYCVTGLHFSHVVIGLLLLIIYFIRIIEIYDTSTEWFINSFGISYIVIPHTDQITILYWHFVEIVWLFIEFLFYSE
Briefly: spectrophotometric cytochrome c oxidation. The conditions noted are these: read-out: Percentage inhibition / complex IV.

The next experiment addresses T3, bc1 (complex III) (Plasmodium falciparum, UniProt Q7HP03+Q8IL75).
T3 construct: gene PF3D7_MIT02300; native complex in cell-free extract of saponin-freed parasites; decylubiquinol:cytochrome c oxidoreductase activity; with Cytochrome c1, heme protein, mitochondrial
T3 sequence (Q7HP03 1-376): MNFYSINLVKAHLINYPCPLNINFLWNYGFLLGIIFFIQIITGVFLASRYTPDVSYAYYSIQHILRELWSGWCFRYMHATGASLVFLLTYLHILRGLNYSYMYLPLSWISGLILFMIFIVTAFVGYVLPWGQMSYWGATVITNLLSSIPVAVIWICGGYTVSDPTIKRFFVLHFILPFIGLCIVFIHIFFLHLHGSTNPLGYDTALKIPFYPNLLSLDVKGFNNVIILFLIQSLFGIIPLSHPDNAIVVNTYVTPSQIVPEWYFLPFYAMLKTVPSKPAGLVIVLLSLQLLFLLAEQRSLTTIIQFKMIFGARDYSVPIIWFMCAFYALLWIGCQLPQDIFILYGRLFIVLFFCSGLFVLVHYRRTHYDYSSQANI
T3 sequence (Q8IL75 31-355): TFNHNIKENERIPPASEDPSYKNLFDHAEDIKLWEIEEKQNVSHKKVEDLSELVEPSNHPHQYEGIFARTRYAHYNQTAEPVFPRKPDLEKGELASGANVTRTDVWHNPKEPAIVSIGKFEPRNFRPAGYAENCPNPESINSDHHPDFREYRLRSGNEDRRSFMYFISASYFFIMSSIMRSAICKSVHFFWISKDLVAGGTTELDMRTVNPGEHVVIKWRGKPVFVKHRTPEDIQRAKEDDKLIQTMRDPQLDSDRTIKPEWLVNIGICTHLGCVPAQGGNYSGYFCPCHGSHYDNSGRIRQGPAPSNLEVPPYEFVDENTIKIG
T3 sequence (Q8I6U9 1-394 partner): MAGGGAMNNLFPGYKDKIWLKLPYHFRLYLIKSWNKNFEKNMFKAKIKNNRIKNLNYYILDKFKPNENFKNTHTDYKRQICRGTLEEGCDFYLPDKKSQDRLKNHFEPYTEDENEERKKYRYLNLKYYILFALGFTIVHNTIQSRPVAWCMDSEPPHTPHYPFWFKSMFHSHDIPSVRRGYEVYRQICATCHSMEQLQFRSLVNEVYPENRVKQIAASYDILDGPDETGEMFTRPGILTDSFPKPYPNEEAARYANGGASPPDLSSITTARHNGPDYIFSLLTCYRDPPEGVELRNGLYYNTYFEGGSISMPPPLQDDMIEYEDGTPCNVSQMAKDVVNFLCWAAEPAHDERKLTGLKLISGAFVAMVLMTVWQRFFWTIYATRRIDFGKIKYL
Briefly: spectrophotometric cytochrome c reduction ([…]-542 nm). The following applies: read-out: Percentage inhibition / bc1 (complex III).

On to `C[C@@H]1CC[C@H]2[C@@H](C)C(=O)O[C@@H]3O[C@@]4(C)CC[C@@H]1[C@]32OO4` [Artemisinin], for which the figures for the inhibition at 1 µM (at PfNDH2; in experiment [1]; on bc1 (complex III)) were 17.1 ± 4.2%, 18.4 ± 4.3% and 3.2 ± 3.7%, respectively.
The matching figures for `C[C@@H]1CC[C@H]2[C@@H](C)C(O)O[C@@H]3O[C@@]4(C)CC[C@@H]1[C@]32OO4` (stereo partly drawn) [Dihydroartemisinin]: 5 ± 4.3%, 21.1 ± 7.9% and 6.7 ± 4.1%.
On to `CN1CCN(C2CCN(C(=O)CC3CCC4(CC3)OOC3(OO4)C4CC5CC(C4)CC3C5)CC2)CC1` (stereo not drawn), for which the values for the inhibition at 1 µM (on PfNDH2; in experiment [1]; on bc1 (complex III)) were 12.3 ± 4.9%, 19.1 ± 2% and 23.2 ± 4.2%, respectively.
As to `CO[C@H]1O[C@@H]2O[C@@]3(C)CC[C@H]4[C@H](C)CC[C@@H]([C@H]1C)[C@@]24OO3` [Artemether], the values for the inhibition at 1 µM (on PfNDH2; in experiment [1]; on bc1 (complex III)) were 4.1 ± 3.3%, 23 ± 2% and 1.8 ± 1.9%, respectively.
The corresponding values for `C[C@H]1[C@H](OC(=O)CCC(=O)O)O[C@@H]2O[C@@]3(C)CC[C@H]4[C@H](C)CC[C@@H]1[C@@]24OO3` [Artesunate] are 3.7 ± 2.9%, 21.1 ± 3.9% and 2.3 ± 0.4%.
